For assay [1], the target named is T1, panel of 442 kinases (Homo sapiens, UniProt P10721, T670I/V559D).
T1 construct: purchased KINOMEscan
The format is binding. As to conditions: Compound Concentration 10 µM. The source says:
(§1) We assessed the selectivity of members of this scaffold using the KINOMEscan methodology across a near comprehensive panel of 442 kinases [[18,27]].

For assay [2], the target named is T2, panel of 442 kinases (Homo sapiens, UniProt Q8IVW4).
T2 construct: purchased KINOMEscan
The format is binding. The following applies: Compound Concentration 10 µM.
Description: as §1

T2 sequence (Q8IVW4 whole entry): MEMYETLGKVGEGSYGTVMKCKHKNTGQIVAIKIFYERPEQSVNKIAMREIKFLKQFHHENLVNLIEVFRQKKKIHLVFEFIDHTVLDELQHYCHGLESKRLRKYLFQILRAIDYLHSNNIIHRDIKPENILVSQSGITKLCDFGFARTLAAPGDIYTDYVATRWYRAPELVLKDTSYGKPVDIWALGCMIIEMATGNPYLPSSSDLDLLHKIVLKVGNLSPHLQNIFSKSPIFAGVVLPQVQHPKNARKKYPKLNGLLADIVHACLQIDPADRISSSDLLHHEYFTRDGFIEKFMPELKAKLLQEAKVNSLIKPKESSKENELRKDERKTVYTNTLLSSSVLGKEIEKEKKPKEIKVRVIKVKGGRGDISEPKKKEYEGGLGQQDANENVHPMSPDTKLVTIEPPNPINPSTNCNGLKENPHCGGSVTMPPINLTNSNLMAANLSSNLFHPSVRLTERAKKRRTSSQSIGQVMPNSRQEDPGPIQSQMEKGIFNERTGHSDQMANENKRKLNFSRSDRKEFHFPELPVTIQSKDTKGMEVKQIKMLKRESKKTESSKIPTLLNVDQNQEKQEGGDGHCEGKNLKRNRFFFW
T1 sequence (P10721 26-976 V559D/T670I): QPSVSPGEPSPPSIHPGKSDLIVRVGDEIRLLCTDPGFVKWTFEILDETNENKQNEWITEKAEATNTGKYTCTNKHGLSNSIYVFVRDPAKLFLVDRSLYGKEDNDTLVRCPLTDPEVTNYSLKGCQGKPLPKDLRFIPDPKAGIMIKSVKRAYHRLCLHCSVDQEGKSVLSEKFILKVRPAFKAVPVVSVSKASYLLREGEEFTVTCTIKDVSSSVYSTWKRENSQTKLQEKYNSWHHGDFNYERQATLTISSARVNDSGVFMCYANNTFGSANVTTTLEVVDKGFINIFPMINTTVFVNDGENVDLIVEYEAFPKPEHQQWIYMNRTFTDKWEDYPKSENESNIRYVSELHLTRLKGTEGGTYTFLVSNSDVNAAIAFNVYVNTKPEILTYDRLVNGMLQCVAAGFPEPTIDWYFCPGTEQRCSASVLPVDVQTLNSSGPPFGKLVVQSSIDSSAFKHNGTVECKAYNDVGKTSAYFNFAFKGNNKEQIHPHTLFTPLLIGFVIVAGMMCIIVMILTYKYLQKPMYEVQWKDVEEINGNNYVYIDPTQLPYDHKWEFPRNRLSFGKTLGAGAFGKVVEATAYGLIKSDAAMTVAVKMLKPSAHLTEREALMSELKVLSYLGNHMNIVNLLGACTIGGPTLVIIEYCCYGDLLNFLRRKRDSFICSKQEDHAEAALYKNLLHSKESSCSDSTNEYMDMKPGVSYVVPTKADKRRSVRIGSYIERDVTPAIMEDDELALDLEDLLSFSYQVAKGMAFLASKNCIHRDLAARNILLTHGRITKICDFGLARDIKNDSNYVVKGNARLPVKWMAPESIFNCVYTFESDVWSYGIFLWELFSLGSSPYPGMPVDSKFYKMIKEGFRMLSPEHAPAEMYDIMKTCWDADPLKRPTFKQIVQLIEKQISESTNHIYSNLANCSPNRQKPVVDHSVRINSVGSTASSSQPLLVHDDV

As for `COc1cc(C(=O)N2CCC(N3CCN(C)CC3)CC2)ccc1Nc1ncc2c(n1)N(C1CCCC1)c1ccccc1C(=O)N2C` [Compound 25, 11-cyclopentyl-2-((2-methoxy-4-(4-(4-methylpiperazin-1-yl)piperidine-1-carbonyl)phenyl)amino)-5-methyl-5H-benzo[e]pyrimido[5,4-b][1,4]diazepin-6(11H)-one], at panel of 442 kinases [1], the “KINOMEscan: KIT(V559D,T670I)” value was found to be 80. Besides, at panel of 442 kinases [2], the “KINOMEscan: CDKL3” value was found to be 73.

Take `COc1cc(C(=O)N2CCC(N3CCN(C)CC3)CC2)ccc1Nc1ncc2c(n1)N1CCc3cccc(c31)C(=O)N2C` [Compound 24]: the “KINOMEscan: CDKL3” value on panel of 442 kinases [2] amounted to 81.

As to `COc1cc(C(=O)N2CCC(N3CCN(C)CC3)CC2)ccc1Nc1ncc2c(n1)N(C)c1ccccc1C(=O)N2C` [15 (LRRK2-IN-1)], on panel of 442 kinases [1], the “KINOMEscan: KIT(V559D,T670I)” value was found to be 81. The “KINOMEscan: CDKL3” value on panel of 442 kinases [2] stood at 83.

Consider `CCOc1cc(C(=O)N2CCC(N3CCN(C)CC3)CC2)ccc1Nc1ncc2c(n1)N(C1CCCC1)c1ccccc1C(=O)N2C` [Compound 26], for which the “KINOMEscan: KIT(V559D,T670I)” value at panel of 442 kinases [1] amounted to 100. Moreover, the “KINOMEscan: CDKL3” value on panel of 442 kinases [2] is reported as 99.

The values are drawn from publication PMC3914206.
